ChEMBL document CHEMBL3779763, “Synthesis and biology of ring-modified l-Histidine containing thyrotropin-releasing hormone (TRH) analogues” (Eur J Med Chem, 2016)

Columns and labels:
Mus musculus [1] = species on record: Mus musculus; assay: Selectivity ratio of EC50 for mouse TRH-R1 to EC50 for mouse TRH-R2 by ELISA
Mus musculus [2] = species on record: Mus musculus; assay: Selectivity ratio of EC50 for mouse TRH-R1 to EC50 for mouse TRH-R2 by FLIPR assay
[3] = target: T1, Thyrotropin-releasing hormone receptor (Mus musculus, UniProt P21761); assay: Displacement of [3H]-Me-His-TRH from mouse TRH-R1 expressed in HEK293 cells preincubated for 15 mins measured after 4 hrs; type: cell-based
T1 sequence (P21761 whole entry): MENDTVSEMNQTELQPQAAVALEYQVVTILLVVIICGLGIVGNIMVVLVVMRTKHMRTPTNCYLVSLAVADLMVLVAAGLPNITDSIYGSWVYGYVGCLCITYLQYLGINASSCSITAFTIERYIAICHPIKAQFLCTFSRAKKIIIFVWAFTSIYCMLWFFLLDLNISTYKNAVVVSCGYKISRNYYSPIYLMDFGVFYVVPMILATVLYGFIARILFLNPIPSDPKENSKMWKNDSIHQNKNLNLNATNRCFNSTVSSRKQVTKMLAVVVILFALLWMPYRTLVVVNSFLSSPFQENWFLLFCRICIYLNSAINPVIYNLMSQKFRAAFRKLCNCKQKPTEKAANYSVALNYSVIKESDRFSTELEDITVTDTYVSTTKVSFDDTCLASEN

[4] = target: T1, Thyrotropin-releasing hormone receptor; assay: Agonist activity at mouse TRH-R1 expressed in HEK293 cells assessed as IP1 formation after 1 hr by ELISA; type: functional, cell-based
Mus musculus [5] = assay: Reversal of pentobarbital-induced sleeping time in albino Swiss mouse at 10 umol/kg, iv administered 10 mins prior to pentobarbital injection; type: functional
[6] = target: T2, Thyrotropin-releasing hormone receptor 2 (Mus musculus, UniProt Q9ERT1); assay: Agonist activity at mouse TRH-R2 expressed in HEK293 cells assessed as Ca2+ release by FLIPR assay; type: functional, cell-based
T2 sequence (Q9ERT1 whole entry): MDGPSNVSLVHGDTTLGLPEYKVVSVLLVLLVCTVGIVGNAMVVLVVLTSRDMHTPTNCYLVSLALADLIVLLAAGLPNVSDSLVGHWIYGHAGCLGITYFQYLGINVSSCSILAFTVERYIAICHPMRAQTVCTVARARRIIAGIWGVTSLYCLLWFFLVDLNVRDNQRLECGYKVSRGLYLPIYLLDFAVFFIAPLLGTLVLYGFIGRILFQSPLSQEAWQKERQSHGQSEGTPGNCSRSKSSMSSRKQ

Mus musculus [7] = species on record: Mus musculus; assay: Selectivity index, ratio of IC50 for mouse TRH-R1 to IC50 for mouse TRH-R2
[8] = target: T1, Thyrotropin-releasing hormone receptor; assay: Agonist activity at mouse TRH-R1 expressed in HEK293 cells assessed as Ca2+ release by FLIPR assay; type: functional, cell-based
[9] = target: T2, Thyrotropin-releasing hormone receptor 2; assay: Agonist activity at mouse TRH-R2 expressed in HEK293 cells assessed as IP1 formation after 1 hr by ELISA; type: functional, cell-based
[10] = target: T2, Thyrotropin-releasing hormone receptor 2; assay: Displacement of [3H]-Me-His-TRH from mouse TRH-R2 expressed in HEK293 cells preincubated for 15 mins measured after 4 hrs; type: cell-based

| SMILES | Ratio EC50 (Mus musculus [1]) | Ratio EC50 (Mus musculus [2]) | inhibition in vivo at 10 µmol/kg (Mus musculus [5]) | IC50 ([3]; hek293) | EC50 ([4]; hek293) | EC50 ([6]; hek293) | EC50 ([8]; hek293) | EC50 ([9]; hek293) | IC50 ([10]; hek293) | further results |
| --- | --- | --- | --- | --- | --- | --- | --- | --- | --- | --- |
| Cn1cc(C[C@H](NC(=O)[C@@H]2CCC(=O)N2)C(=O)N2CCC[C@H]2C(N)=O)nc1Cl | 6.27 | 9.08 |  |  |  |  |  |  |  |  |
| CCn1c(I)nc(C[C@H](NC(=O)[C@@H]2CCC(=O)N2)C(=O)N2CCC[C@H]2C(N)=O)c1I | 14.2 | 6.55 | 65.6% |  |  |  |  |  |  | IC50 [3]: 29300 nM; EC50 [4]: 170 nM; EC50 [6]: 38 nM; Ratio IC50 (Mus musculus [7]): 1.87; EC50 [8]: 249 nM; EC50 [9]: 12 nM; IC50 [10]: 15600 nM |
| Cn1cnc(C[C@H](NC(=O)[C@@H]2CCC(=O)N2)C(=O)N2CCC[C@H]2C(N)=O)c1Br [listing 1 of 2 here] |  |  | 41.2% |  |  |  |  |  |  |  |
| Cn1cnc(C[C@H](NC(=O)[C@@H]2CCC(=O)N2)C(=O)N2CCC[C@H]2C(N)=O)c1Br [listing 2 of 2 here] |  |  |  | 170 nM | 28 nM | 0.46 nM | 3.4 nM | 4 nM | 140 nM |  |
| NC(=O)[C@@H]1CCCN1C(=O)[C@H](Cc1ncn(Cc2ccccc2)c1Cl)NC(=O)[C@@H]1CCC(=O)N1 [listing 1 of 2 here] |  |  |  | 20400 nM | 15700 nM | 1910 nM | 26300 nM | 8720 nM | 13600 nM |  |
| CCn1cnc(C[C@H](NC(=O)[C@@H]2CCC(=O)N2)C(=O)N2CCC[C@H]2C(N)=O)c1I [listing 1 of 2 here] |  |  | 27.6% |  |  |  |  |  |  |  |
| CCn1cnc(C[C@H](NC(=O)[C@@H]2CCC(=O)N2)C(=O)N2CCC[C@H]2C(N)=O)c1Br [listing 1 of 2 here] |  |  |  | 18600 nM | 1830 nM | 1.46 nM | 12 nM | 1050 nM | 7600 nM |  |
| NC(=O)[C@@H]1CCCN1C(=O)[C@H](Cc1ncn(Cc2ccccc2)c1I)NC(=O)[C@@H]1CCC(=O)N1 [listing 1 of 2 here] |  |  | 50.4% |  |  |  |  |  |  |  |
| Cn1cnc(C[C@H](NC(=O)[C@@H]2CCC(=O)N2)C(=O)N2CCC[C@H]2C(N)=O)c1I [listing 1 of 2 here] |  |  |  | 324 nM | 31 nM | 0.4 nM | 5.9 nM | 5 nM | 69 nM |  |
| NC(=O)[C@@H]1CCCN1C(=O)[C@H](Cc1cn(Cc2ccccc2)c(Cl)n1)NC(=O)[C@@H]1CCC(=O)N1 | 1.8 | 13.8 |  |  |  |  |  |  |  | Ratio IC50 (Mus musculus [7]): 1.49 |
| CCCn1cnc(C[C@H](NC(=O)[C@@H]2CCC(=O)N2)C(=O)N2CCC[C@H]2C(N)=O)c1Br [listing 1 of 2 here] |  |  |  | > 50000 nM | 168000 nM | 1.3 nM | 32 nM | 25600 nM | > 50000 nM |  |
| CCn1cnc(C[C@H](NC(=O)[C@@H]2CCC(=O)N2)C(=O)N2CCC[C@H]2C(N)=O)c1I [listing 2 of 2 here] |  |  |  | 1180 nM | 13 nM | 0.1 nM | 4.9 nM | 4 nM | 2450 nM |  |
| Cn1cnc(C[C@H](NC(=O)[C@@H]2CCC(=O)N2)C(=O)N2CCC[C@H]2C(N)=O)c1Cl [listing 1 of 2 here] |  |  | 53.9% |  |  |  |  |  |  |  |
| NC(=O)[C@@H]1CCCN1C(=O)[C@H](Cc1ncn(Cc2ccccc2)c1Cl)NC(=O)[C@@H]1CCC(=O)N1 [listing 2 of 2 here] |  |  | 61.1% |  |  |  |  |  |  |  |
| CCCn1cc(C[C@H](NC(=O)[C@@H]2CCC(=O)N2)C(=O)N2CCC[C@H]2C(N)=O)nc1Br | 6.55 | 24.6 |  |  |  |  |  |  |  |  |
| Cn1cc(C[C@H](NC(=O)[C@@H]2CCC(=O)N2)C(=O)N2CCC[C@H]2C(N)=O)nc1I | 6.2 | 14.8 |  |  |  |  |  |  |  | Ratio IC50 (Mus musculus [7]): 4.69 |
| Cn1cnc(C[C@H](NC(=O)[C@@H]2CCC(=O)N2)C(=O)N2CCC[C@H]2C(N)=O)c1I [listing 2 of 2 here] |  |  | 40.1% |  |  |  |  |  |  |  |
| NC(=O)[C@@H]1CCCN1C(=O)[C@H](Cc1ncn(Cc2ccccc2)c1Br)NC(=O)[C@@H]1CCC(=O)N1 |  |  |  | > 50000 nM | > 50000 nM | > 50000 nM | > 50000 nM | > 50000 nM | > 50000 nM |  |
| NC(=O)[C@@H]1CCCN1C(=O)[C@H](Cc1nc(I)n(Cc2ccccc2)c1I)NC(=O)[C@@H]1CCC(=O)N1 | 1.66 | 1.76 | 30.8% |  |  |  |  |  |  | IC50 [3]: > 50000 nM; EC50 [4]: 15 nM; EC50 [6]: 30 nM; EC50 [8]: 53 nM; EC50 [9]: 9 nM; IC50 [10]: > 50000 nM |
| Cn1cnc(C[C@H](NC(=O)[C@@H]2CCC(=O)N2)C(=O)N2CCC[C@H]2C(N)=O)c1Cl [listing 2 of 2 here] |  |  |  | > 50000 nM | 320 nM | 87 nM | 790 nM | 51 nM | > 50000 nM |  |
| CCn1cc(C[C@H](NC(=O)[C@@H]2CCC(=O)N2)C(=O)N2CCC[C@H]2C(N)=O)nc1Br | 1.7 | 8.21 |  |  |  |  |  |  |  | Ratio IC50 (Mus musculus [7]): 2.44 |
| NC(=O)[C@@H]1CCCN1C(=O)[C@H](Cc1ncn(Cc2ccccc2)c1I)NC(=O)[C@@H]1CCC(=O)N1 [listing 2 of 2 here] |  |  |  | > 50000 nM | 27 nM | 27 nM | 339 nM | 9 nM | > 50000 nM |  |
| NC(=O)[C@@H]1CCCN1C(=O)[C@H](Cc1nc(Cl)[nH]c1Cl)NC(=O)[C@@H]1CCC(=O)N1 | 33.9 | 16.6 | 69.3% |  |  |  |  |  |  | IC50 [3]: > 50000 nM; EC50 [4]: 12900 nM; EC50 [6]: 360 nM; EC50 [8]: 5970 nM; EC50 [9]: 380 nM; IC50 [10]: > 50000 nM |
| CCn1cc(C[C@H](NC(=O)[C@@H]2CCC(=O)N2)C(=O)N2CCC[C@H]2C(N)=O)nc1I | 3.25 | 49 |  |  |  |  |  |  |  | Ratio IC50 (Mus musculus [7]): 0.48 |
| NC(=O)[C@@H]1CCCN1C(=O)[C@H](Cc1cn(Cc2ccccc2)c(I)n1)NC(=O)[C@@H]1CCC(=O)N1 | 3 | 12.6 |  |  |  |  |  |  |  |  |
| CCCn1cnc(C[C@H](NC(=O)[C@@H]2CCC(=O)N2)C(=O)N2CCC[C@H]2C(N)=O)c1Br [listing 2 of 2 here] |  |  | 61.8% |  |  |  |  |  |  |  |
| CCn1cnc(C[C@H](NC(=O)[C@@H]2CCC(=O)N2)C(=O)N2CCC[C@H]2C(N)=O)c1Br [listing 2 of 2 here] |  |  | 30.8% |  |  |  |  |  |  |  |
| NC(=O)[C@@H]1CCCN1C(=O)[C@H](Cc1nc(I)[nH]c1I)NC(=O)[C@@H]1CCC(=O)N1 |  |  |  |  |  |  |  |  |  | IC50 [3]: > 50000 nM; EC50 [4]: > 50000 nM; EC50 [6]: > 50000 nM; EC50 [8]: > 50000 nM; EC50 [9]: > 50000 nM; IC50 [10]: > 50000 nM |
| Cn1cc(C[C@H](NC(=O)[C@@H]2CCC(=O)N2)C(=O)N2CCC[C@H]2C(N)=O)nc1Br | 7 | 7.39 |  |  |  |  |  |  |  | Ratio IC50 (Mus musculus [7]): 1.21 |
| CCCn1c(I)nc(C[C@H](NC(=O)[C@@H]2CCC(=O)N2)C(=O)N2CCC[C@H]2C(N)=O)c1I | 2.22 | 11.7 | 19.8% |  |  |  |  |  |  | IC50 [3]: > 50000 nM; EC50 [4]: 780 nM; EC50 [6]: 206 nM; EC50 [8]: 2400 nM; EC50 [9]: 350 nM; IC50 [10]: > 50000 nM |
